{"source": "patent US5631002A", "about": "“Liniment for melanin inhibitors” (Shiseido Co., Ltd., priority 1994, dated 1997)", "tested_on": "melanin pigment deposition in skin after sunlight exposure", "test": "Whitening effect testing (hypochromic effect on sun-exposed upper arm skin of testees)", "type": "in vivo, human", "settings": "applied twice daily for 4 weeks after sunlight exposure, 8 persons per group", "procedure": "(§1) 40 testees were exposed to summer sunlight for 4 hours (2 hours a day for 2 days) and the skin of an inner lateral part of their upper arm was used as the subject of the test. Beginning after 5 days from the day they were exposed to the sunlight, each sample was applied to this skin once in the morning and once in the afternoon for 4 weeks. The panel was divided into 5 groups with 8 persons in each group. Testing was conducted using the following formulations.\nThe hypochromic effect after the application was evaluated based on the criteria below.\nSamples were prepared with the blend compositions described in the aforementioned test method, and the drugs listed in Table 2 were used to compare the whitening effect.\nas §1, with “From” for “from”\nSamples were prepared with the blend compositions described in the aforementioned test method, and the drugs listed in Table 4 were used to compare the whitening effect.\nSamples were prepared with the blend compositions described in the aforementioned test method, and the drugs listed in Table 6 were used to compare the whitening effect.\nas §1, with “groups 5” for “groups”\nSamples were prepared with the blend compositions described in the aforementioned test Method, and the drugs listed in Table 8 were used to compare the whitening effect."}
{"compound": "Oc1ccc(O)cc1", "note": "[Hydroquinone]", "values": [{"measurement": "Effect (hypochromic effect)", "setting": "Table 2, Blend Ratio 1.0 wt % in lotion", "result": "Δ (Δ: Very effective or effective on 30% to less than 50% testees)"}, {"measurement": "Effect (hypochromic effect)", "setting": "Table 4, Blend Ratio 1.0 wt % in lotion", "result": "Δ (Δ: Very effective or effective on 30% to less than 50% testees)"}, {"measurement": "Effect (hypochromic effect)", "setting": "Table 6, Blend Ratio 1.0 % in lotion", "result": "Δ (Δ: Very effective or effective on 30% to less than 50% testees)"}, {"measurement": "Effect (hypochromic effect)", "setting": "Table 8, Blend Ratio (5) 1.0 in lotion", "result": "Δ (Δ: Very effective or effective on 30% to less than 50% testees)"}]}
